What follows are molecules tested against T1, FAP (Homo sapiens, UniProt Q12884) (assay: Antibody dependent cellular cytotoxicity (ADCC) reporter assay). Settings: WI-38 target cells; Jurkat FcγRIIIa NFAT-luciferase reporter cells; with anti-cotinine antibody (SEQ ID NO: 11/12); 12-18 hours; average if more than one run.
T1 construct: Target cells: WI-38 cells (typically 1000-20,000 cells per well); endogenous in cells; host or cells: WI-38 cells
T1 sequence (Q12884 1-760): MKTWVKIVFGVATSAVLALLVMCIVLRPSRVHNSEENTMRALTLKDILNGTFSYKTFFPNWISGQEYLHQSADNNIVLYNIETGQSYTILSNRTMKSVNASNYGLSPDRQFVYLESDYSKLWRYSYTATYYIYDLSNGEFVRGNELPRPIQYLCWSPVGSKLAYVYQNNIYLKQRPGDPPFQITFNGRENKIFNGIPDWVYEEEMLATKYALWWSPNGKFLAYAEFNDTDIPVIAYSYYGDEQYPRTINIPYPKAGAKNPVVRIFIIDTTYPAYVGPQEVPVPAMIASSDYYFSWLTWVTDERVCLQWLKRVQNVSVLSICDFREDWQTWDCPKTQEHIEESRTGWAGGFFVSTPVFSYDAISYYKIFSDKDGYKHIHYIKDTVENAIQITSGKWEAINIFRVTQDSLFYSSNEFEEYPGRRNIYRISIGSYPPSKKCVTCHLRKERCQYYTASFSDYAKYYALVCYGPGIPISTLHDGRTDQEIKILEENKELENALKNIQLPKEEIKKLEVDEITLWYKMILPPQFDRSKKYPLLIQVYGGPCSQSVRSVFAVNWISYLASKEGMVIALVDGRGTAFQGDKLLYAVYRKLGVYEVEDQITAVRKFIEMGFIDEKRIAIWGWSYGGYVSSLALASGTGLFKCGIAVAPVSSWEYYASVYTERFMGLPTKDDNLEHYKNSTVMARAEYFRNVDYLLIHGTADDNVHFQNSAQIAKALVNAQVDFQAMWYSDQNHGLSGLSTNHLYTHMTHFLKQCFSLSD
Assay type: cell-based
Design: key to ADCC Reporter Assay pEC50: Inactive = pEC50 < 5
Procedure: An antibody dependent cellular cytotoxicity (ADCC) reporter assay was conducted using the following four assay components: (i) ARM compound of Formula (I) targeting FAP (concentrations ranging from […]); (ii) anti-cotinine antibody having a heavy chain sequence of SEQ ID NO: 11 and a light chain sequence of SEQ ID NO: 12 (rabbit variable region with human IgG1 Fc domain containing DE mutation (S239D/I332E)) (concentrations ranging from 0.01 μg/mL 200 μg/mL); (iii) Target cells: WI-38 cells (typically 1000-20,000 cells per well); and (iv) Reporter cells—Jurkat cells engineered to express FcγRIIIa with a reporter gene luciferase under the control of the NFAT promoter (typically 3000-75,000 cells per well). Reagents were combined in final volume of 20 μL in 384—well tissue culture treated plate. All four assay components were incubated together for about 12-18 hours. Thereafter, BioGlo Detection reagent (Promega) was added to the wells to lyse the cells and provide a substrate for the luciferase reporter protein.
Luminescence signal was measured on a microplate reader capable of measuring luminescence and signal:background was calculated by dividing the signal of a test well by the signal obtained when no compound of formula (I) was included in the assay. EC50 calculations were done using Graphpad Prism Software, specifically a nonlinear regression curve fit (Y=Bottom+(Top−Bottom)/(1+10^((Log EC50−X)*HillSlope))).
ARMs compounds of Formula (I) were tested for ADCC activity in the above assay in one or more experimental runs and the results are shown in Table 3 below. Potency of the compounds of Formula (I) is reported as a pEC50 values. The pEC50 value is the negative log of the EC50 value, wherein the EC50 value is half maximal effective concentration measured in molar (M). For compounds tested in more than one experimental run, the pEC50 value is reported as an average.
`CN(CCNC(=O)[C@H]1CC[C@H](NC(=O)[C@H]2CC[C@H](NC(=O)CCCO[C@H]3CC[C@H](OCCNC(=O)[C@H]4CC(=O)N(C)[C@@H]4c4cccnc4)CC3)CC2)CC1)c1ccc2nccc(C(=O)NCC(=O)N3CC(F)(F)C[C@H]3C#N)c2c1` [Example 2, N-(2-((S)-2-cyano-4,4-difluoropyrrolidin-1-yl)-2-oxoethyl)-6-(methyl(2-((1R,4r)-((1R,4R)-4-(4-(((1S,4R)-4-(2-((2S,3S)-1-methyl-5-oxo-2-(pyridin-3-yl)pyrrolidine-3-carboxamido)ethoxy)cyclohexyl)oxy)butanamido)cyclohexane-1-carboxamido)cyclohexane-1-carboxamido)ethyl)amino)quinoline-4-carboxamide] was tested, and the “ADCC Reporter Assay pEC50” value was “Inactive^1”.
In the case of `CN(CCNC(=O)CCCO[C@H]1CC[C@H](OCCNC(=O)[C@H]2CC[C@H](NC(=O)CCCO[C@H]3CC[C@H](OCCNC(=O)[C@H]4CC(=O)N(C)[C@@H]4c4cccnc4)CC3)CC2)CC1)c1ccc2nccc(C(=O)NCC(=O)N3CC(F)(F)C[C@H]3C#N)c2c1` [Example 3, N-(2-((S)-2-cyano-4,4-difluoropyrrolidin-1-yl)-2-oxoethyl)-6-(methyl(2-(4-(((1R,4r)-4-(2-((1R,4R)-4-(4-(((1S,4R)-4-(2-((2S,3S)-1-methyl-5-oxo-2-(pyridin-3-yl)pyrrolidine-3-carboxamido)ethoxy)cyclohexyl)oxy)butanamido)cyclohexane-1-carboxamido)ethoxy)cyclohexyl)oxy)butanamido)ethyl)amino)quinoline-4-carboxamide], the “ADCC Reporter Assay pEC50” value was “Inactive”.
In the case of `CN(CCNC(=O)[C@H]1CC[C@H](NC(=O)CCCO[C@H]2CC[C@H](OCCNC(=O)[C@H]3CC(=O)N(C)[C@@H]3c3cccnc3)CC2)CC1)c1ccc2nccc(C(=O)NCC(=O)N3CC(F)(F)C[C@H]3C#N)c2c1` [Example 4, N-(2-((S)-2-cyano-4,4-difluoropyrrolidin-1-yl)-2-oxoethyl)-6-(methyl(2-((1R,4r)-4-(4-(((1S,4R)-4-(2-((2S,3S)-1-methyl-5-oxo-2-(pyridin-3-yl)pyrrolidine-3-carboxamido)ethoxy)cyclohexyl)oxy)butanamido)cyclohexane-1-carboxamido)ethyl)amino)quinoline-4-carboxamide], the “ADCC Reporter Assay pEC50” value was “Inactive”.
With `CN(CCNC(=O)CCOCCOCCOCCOCCOCCOCCOCCOCCOCCOCCOCCOCCNC(=O)[C@H]1CC(=O)N(C)[C@@H]1c1cccnc1)c1ccc2nccc(C(=O)NCC(=O)N3CC(F)(F)C[C@H]3C#N)c2c1` [Example 5, N-(2-((S)-2-cyano-4,4-difluoropyrrolidin-1-yl)-2-oxoethyl)-6-(methyl(1-((2S,3S)-1-methyl-5-oxo-2-(pyridin-3-yl)pyrrolidin-3-yl)-1,41-dioxo-5,8,11,14,17,20,23,26,29,32,35,38-dodecaoxa-2,42-diazatetratetracontan-44-yl)amino)quinoline-4-carboxamide] the “ADCC Reporter Assay pEC50” value was “Inactive”.

Same assay, conditions: WI-38 target cells; Jurkat FcγRIIIa NFAT-luciferase reporter cells; with anti-cotinine antibody (SEQ ID NO: 11/12); 12-18 hours; average if more than one run; read-out: ADCC Reporter Assay pEC50 (converted)
Work on `CN(CCNC(=O)[C@H]1CC[C@H](NC(=O)CCCO[C@H]2CC[C@H](OCCNC(=O)[C@H]3CC[C@H](NC(=O)CCCO[C@H]4CC[C@H](OCCNC(=O)[C@H]5CC(=O)N(C)[C@@H]5c5cccnc5)CC4)CC3)CC2)CC1)c1ccc2nccc(C(=O)NCC(=O)N3CC(F)(F)C[C@@H]3C#N)c2c1` (racemic) [Example 1, N-(2-((S)-2-Cyano-4,4-difluoropyrrolidin-1-yl)-2-oxoethyl)-6-(methyl(2-((1R,4R)-4-(4-(((1R,4R)-4-(2-((1R,4R)-4-(4-(((1 S,4R)-4-(2-((2S,3S)-1-methyl-5-oxo-2-(pyridin-3-yl)pyrrolidine-3-carboxamido)ethoxy)cyclohexyl)oxy)butanamido)cyclohexane-1-carboxamido)ethoxy)cyclohexyl)oxy)butanamido)cyclohexane-1-carboxamido)ethyl)amino) quinoline-4-carboxamide] yielded an EC50 of 3.98 nM.
Molecule `CN(CCNC(=O)CCOCCOCCOCCOCCOCCOCCOCCOCCOCCOCCOCCOCCOCCOCCOCCOCCOCCOCCOCCOCCNC(=O)[C@H]1CC(=O)N(C)[C@@H]1c1cccnc1)c1ccc2nccc(C(=O)NCC(=O)N3CC(F)(F)C[C@H]3C#N)c2c1` [Example 6, N-(2-((S)-2-cyano-4,4-difluoropyrrolidin-1-yl)-2-oxoethyl)-6-(methyl(1-((2S,3S)-1-methyl-5-oxo-2-(pyridin-3-yl)pyrrolidin-3-yl)-1,65-dioxo-5,8,11,14,17,20,23,26,29,32,35,38,41,44,47,50,53,56,59,62-icosaoxa-2,66-diazaoctahexacontan-68-yl)amino)quinoline-4-carboxamide] has an EC50 of 12.6 nM.
Work on `CN(CCNC(=O)CCOCCOCCOCCOCCOCCOCCOCCOCCOCCOCCOCCOCCOCCOCCOCCOCCOCCOCCOCCOCCOCCOCCOCCOCCNC(=O)[C@H]1CC(=O)N(C)[C@@H]1c1cccnc1)c1ccc2nccc(C(=O)NCC(=O)N3CC(F)(F)C[C@H]3C#N)c2c1` [Example 7, N-(2-((S)-2-Cyano-4,4-difluoropyrrolidin-1-yl)-2-oxoethyl)-6-(methyl(1-((2S,3S)-1-methyl-5-oxo-2-(pyridin-3-yl)pyrrolidin-3-yl)-1,77-dioxo-5,8,11,14,17,20,23,26,29,32,35,38,41,44,47,50,53,56,59,62,65,68,71,74-tetracosaoxa-2,78-diazaoctacontan-80-yl)amino)quinoline-4-carboxamide] yielded an EC50 of 5.01 nM.
With `CN1C(=O)C[C@H](C(=O)NCCOCCOCCOCCOCCOCCOCCOCCOCCOCCOCCOCCOCCOCCOCCOCCNC(=O)COc2ccc3nccc(C(=O)NCC(=O)N4CCC[C@@H]4C#N)c3c2)[C@H]1c1cccnc1` [Example 8, N-(2-((R)-2-cyanopyrrolidin-1-yl)-2-oxoethyl)-6-((1-((2S,3S)-1-methyl-5-oxo-2-(pyridin-3-yl)pyrrolidin-3-yl)-1,51-dioxo-5,8,11,14,17,20,23,26,29,32,35,38,41,44,47-pentadecaoxa-2,50-diazadopentacontan-52-yl)oxy)quinoline-4-carboxamide] the EC50 was 3.98 nM.
With `CN1C(=O)C[C@H](C(=O)NCCOCCOCCOCCOCCOCCOCCOCCOCCOCCOCCOCCOCCOCCOCCOCCOc2ccc3c(C(=O)NCC(=O)N4CCC[C@H]4C#N)ccnc3c2)[C@H]1c1cccnc1` [Example 9, N-(2-((S)-2-cyanopyrrolidin-1-yl)-2-oxoethyl)-7-((1-((2S,3S)-1-methyl-5-oxo-2-(pyridin-3-yl)pyrrolidin-3-yl)-1-oxo-5,8,11,14,17,20,23,26,29,32,35,38,41,44,47-pentadecaoxa-2-azanonatetracontan-49-yl)oxy)quinoline-4-carboxamide] the EC50 was > 1000 nM.
`CN1C(=O)C[C@H](C(=O)NCCOCCOCCOCCOCCOCCOCCOCCOCCOCCOCCOCCOCCOCCOCCOCCNC(=O)COc2ccc3c(C(=O)NCC(=O)N4CCC[C@H]4C#N)ccnc3c2)[C@H]1c1cccnc1` [Example 10, N-(2-((S)-2-cyanopyrrolidin-1-yl)-2-oxoethyl)-7-((1-((2S,3S)-1-methyl-5-oxo-2-(pyridin-3-yl)pyrrolidin-3-yl)-1,51-dioxo-5,8,11,14,17,20,23,26,29,32,35,38,41,44,47-pentadecaoxa-2,50-diazadopentacontan-52-yl)oxy)quinoline-4-carboxamide] was tested, and the EC50 was > 1000 nM.

— patent US20250064947A1, “CYTOTOXICITY TARGETING CHIMERAS FOR FIBROBLAST ACTIVATION PROTEIN-EXPRESSING CELLS” (Glaxosmithkline Intellectual Property Development Limited, priority 2022, published 2025)
